Results as given in patent US20050197350A1, “Novel quinoline, tetrahydroquinazoline, and pyrimidine derivatives and methods of treatment related to the use thereof” (TAISHO PHARMACEUTICAL CO., LTD., priority 2003, published 2005).

Each compound was assayed on MCH receptors (assay: MCH receptor activity class (method not given)). Conditions: activity class 1-3: percent of control at 10^-7 M or IC50.

Row | Structure (SMILES) | class
1 | C=CCOC(=O)NC[C@H]1CC[C@@H](Nc2nccc(N(C)C)n2)CC1 [compound 1650] | 3 (Class 3 The value of percent of control at 10^−7 M was more than 60% or the value of IC50 was more than 200 nM.)
2 | CN(C)c1ccnc(NC2CCC(CNC(=O)OCc3ccccc3)CC2)n1 (stereo not shown) [compound 1651] | 3 (Class 3 The value of percent of control at 10^−7 M was more than 60% or the value of IC50 was more than 200 nM.)
3 | CN(C)c1ccnc(N[C@H]2CC[C@@H](CNC(=O)Oc3ccccc3)CC2)n1 [compound 1652] | 3 (Class 3 The value of percent of control at 10^−7 M was more than 60% or the value of IC50 was more than 200 nM.)
4 | CC(C)[C@@H]1CC[C@@H](C)CC1OC(=O)NC[C@H]1CC[C@@H](Nc2nccc(N(C)C)n2)CC1 (stereo partly shown) [compound 1653] | 3 (Class 3 The value of percent of control at 10^−7 M was more than 60% or the value of IC50 was more than 200 nM.)
5 | Cc1ccc(OC(=O)NC[C@H]2CC[C@@H](Nc3nccc(N(C)C)n3)CC2)cc1 [compound 1654] | 3 (Class 3 The value of percent of control at 10^−7 M was more than 60% or the value of IC50 was more than 200 nM.)
6 | COC(=O)NC[C@H]1CC[C@@H](Nc2nccc(N(C)C)n2)CC1 [compound 1655] | 3 (Class 3 The value of percent of control at 10^−7 M was more than 60% or the value of IC50 was more than 200 nM.)
7 | CN(C)c1ccnc(N[C@H]2CC[C@@H](CNC(=O)OCc3ccccc3Cl)CC2)n1 [compound 1656] | 3 (Class 3 The value of percent of control at 10^−7 M was more than 60% or the value of IC50 was more than 200 nM.)
8 | CN(C)c1ccnc(N[C@H]2CC[C@@H](CNC(=O)OCC3c4ccccc4-c4ccccc43)CC2)n1 [compound 1657] | 3 (Class 3 The value of percent of control at 10^−7 M was more than 60% or the value of IC50 was more than 200 nM.)
9 | CN(C)c1ccnc(N[C@H]2CC[C@@H](CNC(=O)OCC(Cl)(Cl)Cl)CC2)n1 [compound 1658] | 3 (Class 3 The value of percent of control at 10^−7 M was more than 60% or the value of IC50 was more than 200 nM.)
10 | CN(C)c1nc(N[C@H]2CC[C@@H](NC(=O)Nc3ccccc3Cl)CC2)nc2c1CCCC2 [compound 1659] | 3 (Class 3 The value of percent of control at 10^−7 M was more than 60% or the value of IC50 was more than 200 nM.)
11 | Cc1cccc(C)c1NC(=O)N[C@H]1CC[C@@H](Nc2nc3c(c(N(C)C)n2)CCCC3)CC1 [compound 1660] | 3 (Class 3 The value of percent of control at 10^−7 M was more than 60% or the value of IC50 was more than 200 nM.)
12 | CN(C)c1nc(N[C@H]2CC[C@@H](NC(=O)Nc3ccc(F)cc3F)CC2)nc2c1CCCC2 [compound 1661] | 3 (Class 3 The value of percent of control at 10^−7 M was more than 60% or the value of IC50 was more than 200 nM.)
13 | CCc1cccc(C)c1NC(=O)N[C@H]1CC[C@@H](Nc2nc3c(c(N(C)C)n2)CCCC3)CC1 [compound 1662] | 1 (Class 1: The value of percent of control at 10^−7 M was less than 40% or the value of IC50 was less than 50 nM.)
14 | CN(C)c1nc(N[C@H]2CC[C@@H](NC(=O)Nc3ccc(F)cc3)CC2)nc2c1CCCC2 [compound 1664] | 2 (Class 2: The value of percent of control at 10^−7 M was from 40% to 60% or the value of IC′50 was from 50 nM to 200 nM.)
15 | CSc1ccc(NC(=O)N[C@H]2CC[C@@H](Nc3nc4c(c(N(C)C)n3)CCCC4)CC2)cc1 [compound 1665] | 3 (Class 3 The value of percent of control at 10^−7 M was more than 60% or the value of IC50 was more than 200 nM.)
16 | CN(C)c1nc(N[C@H]2CC[C@@H](NC(=O)Nc3ccccc3C(F)(F)F)CC2)nc2c1CCCC2 [compound 1666] | 3 (Class 3 The value of percent of control at 10^−7 M was more than 60% or the value of IC50 was more than 200 nM.)
17 | Cc1cc(C)c(NC(=O)N[C@H]2CC[C@@H](Nc3nc4c(c(N(C)C)n3)CCCC4)CC2)c(C)c1 [compound 1667] | 1 (Class 1: The value of percent of control at 10^−7 M was less than 40% or the value of IC50 was less than 50 nM.)
18 | Cc1ccccc1NC(=O)N[C@H]1CC[C@@H](Nc2nc3c(c(N(C)C)n2)CCCC3)CC1 [compound 1668] | 3 (Class 3 The value of percent of control at 10^−7 M was more than 60% or the value of IC50 was more than 200 nM.)
19 | CN(C)c1nc(N[C@H]2CC[C@@H](NC(=O)Nc3c(Cl)cc(Cl)cc3Cl)CC2)nc2c1CCCC2 [compound 1669] | 2 (Class 2: The value of percent of control at 10^−7 M was from 40% to 60% or the value of IC′50 was from 50 nM to 200 nM.)
20 | CN(C)c1nc(N[C@H]2CC[C@@H](NC(=O)Nc3c(F)cc(Br)cc3Br)CC2)nc2c1CCCC2 [compound 1671, N-(2,4-dibromo-6-fluorophenyl)-N′-(cis-4-{[4-(dimethylamino)-5,6,7,8-tetrahydroquinazolin-2-yl]amino}cyclohexyl)urea] | 2 (Class 2: The value of percent of control at 10^−7 M was from 40% to 60% or the value of IC′50 was from 50 nM to 200 nM.)

Row | Structure (SMILES) | class
21 | CCc1cccc(CC)c1NC(=O)N[C@H]1CC[C@@H](Nc2nc3c(c(N(C)C)n2)CCCC3)CC1 [compound 1672] | 1 (Class 1: The value of percent of control at 10^−7 M was less than 40% or the value of IC50 was less than 50 nM.)
22 | CN(C)c1nc(N[C@H]2CC[C@@H](NC(=O)Nc3c(Cl)cccc3C(F)(F)F)CC2)nc2c1CCCC2 [compound 1673] | 3 (Class 3 The value of percent of control at 10^−7 M was more than 60% or the value of IC50 was more than 200 nM.)
23 | Cc1cccc(Cl)c1NC(=O)N[C@H]1CC[C@@H](Nc2nc3c(c(N(C)C)n2)CCCC3)CC1 [compound 1674] | 3 (Class 3 The value of percent of control at 10^−7 M was more than 60% or the value of IC50 was more than 200 nM.)
24 | CN(C)c1nc(N[C@H]2CC[C@@H](NC(=O)NCc3ccccc3Cl)CC2)nc2c1CCCC2 [compound 1675, N-(2-chlorobenzyl)-N′-(cis-4-{[4-(dimethylamino)-5,6,7,8-tetrahydroquinazolin-2-yl]amino}cyclohexyl)urea] | 2 (Class 2: The value of percent of control at 10^−7 M was from 40% to 60% or the value of IC′50 was from 50 nM to 200 nM.)
25 | CCc1cccc(C(C)C)c1NC(=O)N[C@H]1CC[C@@H](Nc2nc3c(c(N(C)C)n2)CCCC3)CC1 [compound 1676] | 2 (Class 2: The value of percent of control at 10^−7 M was from 40% to 60% or the value of IC′50 was from 50 nM to 200 nM.)
26 | CCc1ccccc1NC(=O)N[C@H]1CC[C@@H](Nc2nc3c(c(N(C)C)n2)CCCC3)CC1 [compound 1677] | 2 (Class 2: The value of percent of control at 10^−7 M was from 40% to 60% or the value of IC′50 was from 50 nM to 200 nM.)
27 | CN(C)c1nc(N[C@H]2CC[C@@H](NC(=O)Nc3ccccc3I)CC2)nc2c1CCCC2 [compound 1678] | 3 (Class 3 The value of percent of control at 10^−7 M was more than 60% or the value of IC50 was more than 200 nM.)
28 | Cc1cccc(C(C)C)c1NC(=O)N[C@H]1CC[C@@H](Nc2nc3c(c(N(C)C)n2)CCCC3)CC1 [compound 1679] | 2 (Class 2: The value of percent of control at 10^−7 M was from 40% to 60% or the value of IC′50 was from 50 nM to 200 nM.)
29 | CC(C)c1ccccc1NC(=O)N[C@H]1CC[C@@H](Nc2nc3c(c(N(C)C)n2)CCCC3)CC1 [compound 1680] | 3 (Class 3 The value of percent of control at 10^−7 M was more than 60% or the value of IC50 was more than 200 nM.)
30 | Cc1c(NC(=O)N[C@H]2CC[C@@H](Nc3nc4c(c(N(C)C)n3)CCCC4)CC2)cccc1[N+](=O)[O-] [compound 1681] | 3 (Class 3 The value of percent of control at 10^−7 M was more than 60% or the value of IC50 was more than 200 nM.)
31 | CCCc1ccccc1NC(=O)N[C@H]1CC[C@@H](Nc2nc3c(c(N(C)C)n2)CCCC3)CC1 [compound 1682] | 3 (Class 3 The value of percent of control at 10^−7 M was more than 60% or the value of IC50 was more than 200 nM.)
32 | Cc1cccc(C(C)(C)C)c1NC(=O)N[C@H]1CC[C@@H](Nc2nc3c(c(N(C)C)n2)CCCC3)CC1 [compound 1683, N-(2-tert-butyl-6-methylphenyl)-N′-(cis-4-{[4-(dimethylamino)-5,6,7,8-tetrahydroquinazolin-2-yl]amino}cyclohexyl)urea] | 2 (Class 2: The value of percent of control at 10^−7 M was from 40% to 60% or the value of IC′50 was from 50 nM to 200 nM.)
33 | CN(C)c1nc(N[C@H]2CC[C@@H](NC(=O)Nc3ccccc3C(C)(C)C)CC2)nc2c1CCCC2 [compound 1684] | 3 (Class 3 The value of percent of control at 10^−7 M was more than 60% or the value of IC50 was more than 200 nM.)
34 | Cc1c(Cl)cccc1NC(=O)N[C@H]1CC[C@@H](Nc2nc3c(c(N(C)C)n2)CCCC3)CC1 [compound 1685] | 3 (Class 3 The value of percent of control at 10^−7 M was more than 60% or the value of IC50 was more than 200 nM.)
35 | CN(C)c1nc(N[C@H]2CC[C@@H](NC(=O)Nc3c(F)cc(Br)cc3F)CC2)nc2c1CCCC2 [compound 1686] | 3 (Class 3 The value of percent of control at 10^−7 M was more than 60% or the value of IC50 was more than 200 nM.)
36 | CN(C)c1nc(N[C@H]2CC[C@@H](NC(=O)Nc3ccc(Cl)cc3C(F)(F)F)CC2)nc2c1CCCC2 [compound 1687] | 3 (Class 3 The value of percent of control at 10^−7 M was more than 60% or the value of IC50 was more than 200 nM.)
37 | CN(C)c1nc(N[C@H]2CC[C@@H](NC(=O)Nc3ccc(C#N)cc3)CC2)nc2c1CCCC2 [compound 1688] | 3 (Class 3 The value of percent of control at 10^−7 M was more than 60% or the value of IC50 was more than 200 nM.)
38 | CN(C)c1nc(N[C@H]2CC[C@@H](NC(=O)NC(c3ccccc3)c3ccccc3)CC2)nc2c1CCCC2 [compound 1689] | 1 (Class 1: The value of percent of control at 10^−7 M was less than 40% or the value of IC50 was less than 50 nM.)
39 | Cc1cc(Br)cc(C)c1NC(=O)N[C@H]1CC[C@@H](Nc2nc3c(c(N(C)C)n2)CCCC3)CC1 [compound 1690, N-(4-bromo-2,6-dimethylphenyl)-N′-(cis-4-{[4-(dimethylamino)-5,6,7,8-tetrahydroquinazolin-2-yl]amino}cyclohexyl)urea] | 1 (Class 1: The value of percent of control at 10^−7 M was less than 40% or the value of IC50 was less than 50 nM.)
40 | Cc1noc(-c2ccccc2)c1NC(=O)N[C@H]1CC[C@@H](Nc2nc3c(c(N(C)C)n2)CCCC3)CC1 [compound 1691] | 1 (Class 1: The value of percent of control at 10^−7 M was less than 40% or the value of IC50 was less than 50 nM.)
